Compound in this assay: COc1ccc([C@@H](O)c2cc(-c3ncnc4cc(N5CCOCC5)ccc34)c(F)cc2Cl)nn1 [peposertib]
The assay can be described thus: relative cell growth vs untreated control (GI, NCI-DTP normalisation with time-zero) (fraction of control growth); higher = more growth / less inhibition. Particulars: treatment time: 120 h. The method, then:
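Cancer cell lines were treated with peposertib (DNA-PK inhibitor) combined with gamma ionizing radiation (0, 2, 3 or 6 Gy) for 120 h, starting 48 h after seeding. Read-out was sulforhodamine B total-protein staining, normalised to untreated control and time-zero wells (NCI-DTP GI convention).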

[1] abbreviates: peposertib concentration 0.00488 µM, gamma irradiation dose (Gy): 0.
[2] abbreviates: peposertib concentration 0.0195 µM, gamma irradiation dose (Gy): 0.
The mark [3] stands for this setting: peposertib concentration 0.0781 µM, gamma irradiation dose (Gy): 0.
Where [4] appears, read: peposertib concentration 0.313 µM, gamma irradiation dose (Gy): 0.
The mark [5] stands for this setting: peposertib concentration 1.25 µM, gamma irradiation dose (Gy): 0.
[6] abbreviates: peposertib concentration 5 µM, gamma irradiation dose (Gy): 0.

± gives the standard deviation of the averaged measurements.

With SF295, the relative cell growth is 1.03 under setting [1]; 1.01 under setting [2]; 0.992 under setting [3]; 0.945 under setting [4]; 0.54 under setting [5]; 0.209 under setting [6].

On to SKBR3, for which the relative cell growth under setting [1] is 0.938; the relative cell growth under setting [2] was found to be 1.03; the relative cell growth under setting [3] turned out to be 1.03; the relative cell growth under setting [4] came to 0.89; the relative cell growth under setting [5] turned out to be 0.523; the relative cell growth under setting [6] was found to be 0.0447.

As for SKLMS1, the relative cell growth by setting is: under setting [1], 0.903; under setting [2], 0.977; under setting [3], 0.896; under setting [4], 0.593; under setting [5], 0.435; under setting [6], 0.169.

On to SKMEL5, for which the relative cell growth came out at 1.07 under setting [1]; 1.07 under setting [2]; 1.11 under setting [3]; 1.08 under setting [4]; 0.72 under setting [5]; 0.202 under setting [6].

For SKMEL28, the relative cell growth runs as follows: under setting [1], 1; under setting [2], 1.02; under setting [3], 0.902; under setting [4], 0.746; under setting [5], 0.648; under setting [6], 0.477.

With SUDHL6, the relative cell growth runs as follows: under setting [1], 0.943; under setting [2], 0.915; under setting [3], 0.816; under setting [4], 0.254; under setting [5], -0.0283; under setting [6], -0.0413.

SUDHL10: the relative cell growth is, setting by setting: under setting [1], 1.01; under setting [2], 1.01; under setting [3], 1.02; under setting [4], 1.12; under setting [5], 1.12; under setting [6], 0.345.

For the test system SW620, the relative cell growth by setting is: under setting [1], 1.03 ± 0.033; (peposertib concentration 0.00488 µM, gamma irradiation dose (Gy): 3) 0.3; under setting [2], 1.01 ± 0.048; (peposertib concentration 0.0195 µM, gamma irradiation dose (Gy): 3) 0.245; under setting [3], 0.992 ± 0.054; (peposertib concentration 0.0781 µM, gamma irradiation dose (Gy): 3) 0.131. In addition, the relative cell growth is 0.94 ± 0.046 under setting [4]; 0.044 (peposertib concentration 0.313 µM, gamma irradiation dose (Gy): 3); 0.833 ± 0.15 under setting [5]; 0.0135 (peposertib concentration 1.25 µM, gamma irradiation dose (Gy): 3); 0.675 ± 0.2 under setting [6]; 0.0174 (peposertib concentration 5 µM, gamma irradiation dose (Gy): 3).

T24: the relative cell growth reads like this: under setting [1], 1.01; under setting [2], 0.992; under setting [3], 0.979; under setting [4], 0.927; under setting [5], 0.838; under setting [6], 0.748.

As to TE671, the relative cell growth runs as follows: under setting [1], 0.999; under setting [2], 0.999; under setting [3], 0.989; under setting [4], 0.929; under setting [5], 0.736; under setting [6], 0.243.

With THP1, the relative cell growth by setting is: under setting [1], 0.988; under setting [2], 0.968; under setting [3], 0.887; under setting [4], 0.721; under setting [5], 0.436; under setting [6], 0.148.

Regarding U2OS, the relative cell growth is 1.05 under setting [1]; 1.04 under setting [2]; 1 under setting [3]; 0.966 under setting [4]; 0.815 under setting [5]; 0.529 under setting [6].

Turning to U87MG, the relative cell growth under setting [1] was determined as 1.23; the relative cell growth under setting [2] was 1.06; the relative cell growth under setting [3] turned out to be 1.02; the relative cell growth under setting [4] was 0.733; the relative cell growth under setting [5] is 0.257; the relative cell growth under setting [6] worked out at 0.116.

For the test system UMUC3, the relative cell growth was found to be 1.06 under setting [1]; 1.06 under setting [2]; 0.997 under setting [3]; 0.932 under setting [4]; 0.819 under setting [5]; 0.5 under setting [6].

In the case of WSUNHL, the relative cell growth was 1.07 under setting [1]; 1.08 under setting [2]; 0.713 under setting [3]; 0.513 under setting [4]; 0.0836 under setting [5]; -0.0127 under setting [6].

The values are drawn from the supplement of paper PMC10721915.
